Literature values, collected in US20250311736A1, “SEED TREATMENT METHODS FOR INCREASING YIELD IN CROP PLANTS” (BAYER AKTIENGESELLSCHAFT, priority 2021, published 2025).

System: plants
Settings: Tavares et al., 2011; Suwitchayanon et al., 2019

Question: For O=C(/C=C/C=C/c1ccc2c(c1)OCO2)N1CCCCC1 [piperine], which “phytotoxic effect on plants (inhibits their growth)” value is on record?
Answer: phytotoxic effect
